The IC50 is the concentration that gives 50% inhibition.

Here are results for three molecules from paper PMC10041525, “New Dual Inhibitors of Bacterial Topoisomerases with Broad-Spectrum Antibacterial Activity and In Vivo Efficacy against Vancomycin-Intermediate Staphylococcus aureus” (Journal of Medicinal Chemistry, 2023).

The target in one assay is T1, DNA gyrase from E. coli (Escherichia coli, UniProt P0AES6).
T1 construct: purchased Inspiralis
Put plainly: supercoiling HTS plate assay. Format: biochemical. The settings on record: IC50 [nM] E. coli DNA gyrase. On the procedure:
(§1) All compounds were tested for their inhibitory activities against DNA gyrase and topo IV from E. coli in supercoiling and relaxation high-throughput plate assays, respectively. Our new series of inhibitors were then tested against a panel of Gram-positive and Gram-negative bacteria.
(§2) Seven concentrations of the inhibitors were used to determine IC50 values which were then calculated with GraphPad Prism 6.0 software. Three independent measurements were performed to determine IC50 values, and mean values are reported as the final result.

The target in the next assay is T2, topo IV from E. coli (Escherichia coli, UniProt P20083).
T2 construct: purchased Inspiralis
Put plainly: relaxation HTS plate assay. Format: biochemical. The procedure:
as §1, §2

The next assay has as its system A. baumannii ATCC 17978. Put plainly: MIC broth microdilution (CLSI). The assay is classed as cell-based. The settings on record: Acinetobacter baumannii, ATCC17978. On the procedure: (§3) Cation-adjusted Mueller Hinton broth 2 (MHBII) was used for bacterial growth under standard laboratory conditions and for antimicrobial susceptibility tests. MHBII broth was prepared by dissolving 22 g of MHBII powder [containing beef extract (3 g), acid hydrolysate of casein (17.5 g), and starch (1.5 g); Becton Dickinson and Co.] in 1 L of water. To prepare MHBII agar, 14 g of agar (Bacto; Molar Chemicals) was added to 1 L of broth.
(§4) Bacterial strains were inoculated onto MHBII agar plates and grown overnight at 37 °C. Next, three individual colonies from each strain were inoculated into 1 mL of MHBII medium and propagated at 37 °C overnight, with agitation at 250 rpm. For Enterococcus sp., the cells were plated in brain–heart infusion [(BHI) medium] agar plates, and BHI broth was used to determine the MICs. […] Following the dilutions, each well was seeded with 5 × 10^4 bacterial cells (in 100 μL final volume). Each measurement was performed in three parallel replicates, and to avoid possible edge effects in the microwell plates, the outside rows (A, H) were filled with sterile medium. Following the inoculations, the plates were covered with the lids and wrapped in polyethylene plastic bags, to minimize evaporation but to allow O2 transfer. […] After incubation, the OD600 of each well was measured using a microplate reader (Synergy 2; Biotek).

A further assay relates to S. aureus ATCC 29213. Put plainly: MIC broth microdilution (CLSI). Format: cell-based. The settings on record: Staphylococcus aureus, ATCC29213. The procedure: as §3, §4
The test system of assay [1] is Enterococcus faecalis ATCC 29212. Put plainly: MIC broth microdilution (CLSI). The settings on record: Enterococcus faecalis, ATCC29212; read-out: MIC. The assay is classed as cell-based, E. faecalis. The procedure: as §3, with “MICs (Tables 1 and S1–S3) were determined with a standard serial broth microdilution technique according to Clinical and Laboratory Standards Institute (CLSI) guidelines.[45] Cation-adjusted” for “Cation-adjusted”
(§5) Bacterial strains were inoculated onto MHBII agar plates and grown overnight at 37 °C. Next, three individual colonies from each strain were inoculated into 1 mL of MHBII medium and propagated at 37 °C overnight, with agitation at 250 rpm. For Enterococcus sp., the cells were plated in brain–heart infusion [(BHI) medium] agar plates, and BHI broth was used to determine the MICs. […] The highest final DMSO concentration in the experiments was 0.64% (in the case of the 64 μg/mL concentration of the inhibitor). Following the dilutions, each well was seeded with 5 × 10^4 bacterial cells (in 100 μL final volume). Each measurement was performed in three parallel replicates, and to avoid possible edge effects in the microwell plates, the outside rows (A, H) were filled with sterile medium. Following the inoculations, the plates were covered with the lids and wrapped in polyethylene plastic bags, to minimize evaporation but to allow O2 transfer. The plates were incubated at 37 °C under continuous shaking at 150 rpm for 18 h. After incubation, the OD600 of each well was measured using a microplate reader (Synergy 2; Biotek). The MICs were defined as the antibiotic concentrations which inhibited the growth of the bacterial cultures; that is, the drug concentration where the average OD600 increment of the three technical replicates was below 1.5-fold the background OD increment.
(Dilution methods test growth across graded concentrations, often in twofold steps.)

Another assay deals with K. pneumoniae ATCC 10031. Put plainly: MIC broth microdilution (CLSI). The assay is classed as cell-based. The procedure: as §3, with “MICs (Tables 1 and S1–S3) were determined with a standard serial broth microdilution technique according to Clinical and Laboratory Standards Institute (CLSI) guidelines.[45] Cation-adjusted” for “Cation-adjusted”
as §5

The subject of assay [2] is Enterobacter cloacae spp. cloacae ATCC 13047. Put plainly: MIC broth microdilution (CLSI). Format: cell-based. The settings on record: Enterobacter cloacae, ATCC13047; read-out: MIC. The procedure: as §3, with “MICs (Tables 1 and S1–S3) were determined with a standard serial broth microdilution technique according to Clinical and Laboratory Standards Institute (CLSI) guidelines.[45] Cation-adjusted” for “Cation-adjusted”
as §5

The subject of assay [3] is S. aureus (MRSA) ATCC 43300. Put plainly: MIC broth microdilution (CLSI). Format: cell-based. The settings on record: Staphylococcus aureus. The procedure: as §3, with “MICs (Tables 1 and S1–S3) were determined with a standard serial broth microdilution technique according to Clinical and Laboratory Standards Institute (CLSI) guidelines.[45] Cation-adjusted” for “Cation-adjusted”
as §5

The subject of assay [4] is S. aureus (VISA) ATCC 700699. Put plainly: MIC broth microdilution (CLSI). The assay is classed as cell-based. The settings on record: Staphylococcus aureus; read-out: MIC. On the procedure:
as §3, with “MICs (Tables 1 and S1–S3) were determined with a standard serial broth microdilution technique according to Clinical and Laboratory Standards Institute (CLSI) guidelines.[45] Cation-adjusted” for “Cation-adjusted”
as §5

For another assay, the system named is E. coli ATCC 25922. Put plainly: MIC broth microdilution (CLSI). Format: cell-based. The settings on record: Escherichia coli, ATCC25922; read-out: MIC. On the procedure:
as §3, with “MICs (Tables 1 and S1–S3) were determined with a standard serial broth microdilution technique according to Clinical and Laboratory Standards Institute (CLSI) guidelines.[45] Cation-adjusted” for “Cation-adjusted”
as §5

A further assay concerns E. faecium ATCC 700221. Put plainly: MIC broth microdilution (CLSI). The assay is classed as cell-based. The settings on record: Enterococcus faecium, ATCC700221; read-out: MIC. The procedure: as §3, with “MICs (Tables 1 and S1–S3) were determined with a standard serial broth microdilution technique according to Clinical and Laboratory Standards Institute (CLSI) guidelines.[45] Cation-adjusted” for “Cation-adjusted”
as §5

In the next assay the test system is P. aeruginosa ATCC 27853. Put plainly: MIC broth microdilution (CLSI). The settings on record: Pseudomonas aeruginosa, ATCC27853; read-out: MIC. The assay is classed as cell-based. The procedure: as §3, with “MICs (Tables 1 and S1–S3) were determined with a standard serial broth microdilution technique according to Clinical and Laboratory Standards Institute (CLSI) guidelines.[45] Cation-adjusted” for “Cation-adjusted”
as §5

The subject of another assay is P. aeruginosa PAO1. Put plainly: MIC broth microdilution (CLSI). The assay is classed as cell-based. The settings on record: Pseudomonas aeruginosa; PAO1 used for 7l, 8b, 14, 16b, 16c. On the procedure:
as §3, with “MICs (Tables 1 and S1–S3) were determined with a standard serial broth microdilution technique according to Clinical and Laboratory Standards Institute (CLSI) guidelines.[45] Cation-adjusted” for “Cation-adjusted”
as §5
(§6) cMIC, minimum inhibitory concentration
(§7) Bacterial strains that were used: S. aureus ATCC 29213, S. aureus (MRSA) ATCC 43300, S. aureus (VISA) ATCC 700699, E. faecalis ATCC 29212, E. faecium ATCC 700221,
(§8) E. coli ATCC 25922, P. aeruginosa ATCC 27853 (PAO1 for compounds 7l, 8b, 14), A. baumannii ATCC 17978 (ATCC 19606 for compounds 7l, 8b, 14), K. pneumoniae ATCC
(§9) Measurements were performed according to the Clinical and Laboratory Standards Institute guidelines, with three independent measurements.

The next assay relates to A. baumannii ATCC 19606. Put plainly: MIC broth microdilution (CLSI). Format: cell-based. The settings on record: Acinetobacter baumannii, ATCC19606. On the procedure: as §3, with “MICs (Tables 1 and S1–S3) were determined with a standard serial broth microdilution technique according to Clinical and Laboratory Standards Institute (CLSI) guidelines.[45] Cation-adjusted” for “Cation-adjusted”
as §5, §6, §7, §8, §9

The next assay deals with K. pneumoniae ATCC 13883. Put plainly: MIC broth microdilution (CLSI). Format: cell-based. The settings on record: Klebsiella pneumoniae, ATCC13883; ATCC 13883 used for 7l, 8b, 14, 16b, 16c. The procedure:
as §3, with “MICs (Tables 1 and S1–S3) were determined with a standard serial broth microdilution technique according to Clinical and Laboratory Standards Institute (CLSI) guidelines.[45] Cation-adjusted” for “Cation-adjusted”
as §5, §6, §7, §8, §9

The mark [5] stands for this setting: read-out: MIC [µg/mL] (A. baumannii ATCC 17978).
Where [6] appears, read: read-out: MIC [µg/mL](S. aureus ATCC 29213).
Where [7] appears, read: ATCC 19606 used for 7l, 8b, 14, 16b, 16c, read-out: MIC.

Where two headings read alike, the source gives them in different places.

T2 sequence (P0AFI2 whole entry): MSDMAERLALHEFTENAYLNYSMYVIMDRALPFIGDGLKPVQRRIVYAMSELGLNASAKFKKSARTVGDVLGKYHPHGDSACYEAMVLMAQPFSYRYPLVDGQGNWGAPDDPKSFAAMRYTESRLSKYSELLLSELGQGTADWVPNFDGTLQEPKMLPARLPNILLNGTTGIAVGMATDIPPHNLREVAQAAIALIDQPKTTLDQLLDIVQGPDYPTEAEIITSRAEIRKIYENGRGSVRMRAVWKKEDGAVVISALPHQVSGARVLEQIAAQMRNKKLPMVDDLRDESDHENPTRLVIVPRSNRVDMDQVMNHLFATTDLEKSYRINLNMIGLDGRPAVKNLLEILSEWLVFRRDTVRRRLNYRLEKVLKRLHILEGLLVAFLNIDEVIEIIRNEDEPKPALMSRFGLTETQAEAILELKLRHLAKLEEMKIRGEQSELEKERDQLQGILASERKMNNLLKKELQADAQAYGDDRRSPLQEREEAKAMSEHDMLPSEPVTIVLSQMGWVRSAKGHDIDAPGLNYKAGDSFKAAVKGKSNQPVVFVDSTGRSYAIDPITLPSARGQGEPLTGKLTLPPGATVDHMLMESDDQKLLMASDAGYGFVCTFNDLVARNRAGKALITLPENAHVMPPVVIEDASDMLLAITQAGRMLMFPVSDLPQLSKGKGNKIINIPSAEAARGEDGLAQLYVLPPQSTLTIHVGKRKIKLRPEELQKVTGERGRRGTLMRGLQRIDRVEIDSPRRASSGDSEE
T2 sequence (P20083 whole entry): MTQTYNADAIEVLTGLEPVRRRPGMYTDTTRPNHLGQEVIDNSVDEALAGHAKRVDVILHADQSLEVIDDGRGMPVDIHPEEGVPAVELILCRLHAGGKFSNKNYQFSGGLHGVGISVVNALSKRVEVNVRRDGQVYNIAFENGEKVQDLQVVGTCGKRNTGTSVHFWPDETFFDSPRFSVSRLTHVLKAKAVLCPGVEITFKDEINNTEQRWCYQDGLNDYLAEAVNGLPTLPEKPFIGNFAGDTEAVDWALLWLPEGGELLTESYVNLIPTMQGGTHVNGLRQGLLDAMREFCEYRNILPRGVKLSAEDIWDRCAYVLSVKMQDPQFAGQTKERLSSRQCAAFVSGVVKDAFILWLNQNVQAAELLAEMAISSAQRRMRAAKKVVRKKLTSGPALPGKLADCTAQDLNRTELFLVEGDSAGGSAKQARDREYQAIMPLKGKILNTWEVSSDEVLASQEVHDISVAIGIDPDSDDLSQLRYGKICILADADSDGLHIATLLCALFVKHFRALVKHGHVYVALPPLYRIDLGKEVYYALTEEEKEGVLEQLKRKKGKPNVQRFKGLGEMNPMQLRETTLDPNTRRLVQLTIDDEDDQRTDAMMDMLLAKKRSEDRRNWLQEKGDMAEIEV

As for `Cc1[nH]c(C(=O)Nc2nc3c(N4CC[C@H](N)C4)cc(C(=O)O)cc3s2)c(Cl)c1Cl.Cl` [8a, (S)-1-(6-Carboxy-2-(3,4-dichloro-5-methyl-1H-pyrrole-2-carboxamido)benzo[d]thiazol-4-yl)pyrrolidin-3-aminium Chloride], the half-inhibitory concentration (IC50) against DNA gyrase from E. coli is below 10 nM; on topo IV from E. coli (IC50), below 100 nM; on topo IV from E. coli (IC50 [nM] E. coli TopoIV) it was 38 ± 10 nM. For the same molecule, the MIC was above 32 µg/mL in the assay on A. baumannii ATCC 17978 (read-out: MIC); above 32 µg/mL in the assay on A. baumannii ATCC 17978 (setting [5]); 32 µg/mL with S. aureus ATCC 29213 (read-out: MIC); 32 µg/mL with S. aureus ATCC 29213 (setting [6]); 32 mg/L in assay [1]; 4 mg/L in the assay with K. pneumoniae ATCC 10031. In addition, the MIC in the assay on K. pneumoniae ATCC 10031 (Klebsiella pneumoniae, ATCC10031, read-out: MIC) was 4 mg/L; in assay [2] it was above 32 mg/L; in [3] (read-out: MIC), 16 µg/mL; in [3] (read-out: MIC [µg/mL](S. aureus MRSA ATCC4330)), 16 µg/mL; in [4], 8 mg/L; in the assay with E. coli ATCC 25922, above 32 mg/L. Besides, the MIC is 32 mg/L in the assay with E. faecium ATCC 700221 and above 32 mg/L in the assay with P. aeruginosa ATCC 27853.
With `Cc1[nH]c(C(=O)Nc2nc3c(N4CCNCC4)cc(C(=O)O)cc3s2)c(Cl)c1Cl.Cl` [8b, 4-(6-Carboxy-2-(3,4-dichloro-5-methyl-1H-pyrrole-2-carboxamido)benzo[d]thiazol-4-yl)piperazin-1-ium Chloride], the IC50 at DNA gyrase from E. coli is below 10 nM; on topo IV from E. coli (IC50 [nM] E. coli TopoIV) it was 120 ± 15 nM. Besides, the MIC in the assay on S. aureus ATCC 29213 (read-out: MIC) is 32 µg/mL; in the assay on S. aureus ATCC 29213 (setting [6]), 32 µg/mL; in the assay with P. aeruginosa PAO1 it was above 64 mg/L; with A. baumannii ATCC 19606 (setting [7]), 64 µg/mL; with A. baumannii ATCC 19606 (read-out: MIC [µg/mL] (A. baumannii ATCC 19606 for compounds 7l, 8b, 14)), 64 µg/mL; in the assay on K. pneumoniae ATCC 13883 it was 64 mg/L. For the same molecule, in the assay on E. coli ATCC 25922, the MIC stood at 16 mg/L.
With `Cc1[nH]c(C(=O)Nc2nc3c(N4CCOCC4)cc(C(=O)O)cc3s2)cc1C#N` [16c, 2-(4-Cyano-5-methyl-1H-pyrrole-2-carboxamido)-4-morpholinobenzo[d]thiazole-6-carboxylic Acid], the figures for the half-maximal inhibitory concentration (IC50) on DNA gyrase from E. coli and on topo IV from E. coli (read-out: IC50) were 32 ± 9 nM and 440 nM, respectively. Further, the MIC in the assay with A. baumannii ATCC 17978 (setting [5]) was above 64 µg/mL; in the assay on S. aureus ATCC 29213 (read-out: MIC) it was above 64 µg/mL; in the assay on S. aureus ATCC 29213 (setting [6]), above 64 µg/mL; in the assay with P. aeruginosa PAO1, above 64 mg/L; in the assay on A. baumannii ATCC 19606 (setting [7]), above 64 µg/mL; in the assay with K. pneumoniae ATCC 13883, above 64 mg/L. Further, the MIC in the assay on E. coli ATCC 25922 was above 64 mg/L.
